According to ChEMBL document CHEMBL4138197, “Design, synthesis and pharmacological evaluation of N-(5-chloro-2,4-dihydroxybenzoyl)-(R)-N-arylmethyl-1,2,3,4-tetrahydro-3-isoquinolinecarboxamides as potent Hsp90 inhibitors” (Eur J Med Chem, 2018):
Calls of active or inactive are those of the source. No cut-off for these calls is given here.

Tests used:
[1] = target: Heat shock protein HSP 90-alpha (Homo sapiens) (UniProt P07900); assay: Binding affinity to HSP90alpha in HEK293T cells assessed as induction of thermal stabilisation of HSP90alpha pre-incubated for 3 hrs followed by heating at 37 to 63 degC for 3 mins then subsequent cooling for 3 mins by Western blot-based CESTA relative to beta actin; type: cell-based
[2] = target: Heat shock protein HSP 90-alpha (Homo sapiens) (UniProt P07900); assay: Inhibition of HSP90alpha in human MDA-MB-453 cells assessed as down-regulation of cdc2 levels by Western blot analysis; type: cell-based
[3] = target: Heat shock protein HSP 90-alpha (Homo sapiens) (UniProt P07900); assay: Inhibition of HSP90alpha in human MDA-MB-453 cells assessed as down-regulation of CDK4 levels by Western blot analysis; type: cell-based
[4] = target: Heat shock protein HSP 90-alpha (Homo sapiens) (UniProt P07900); assay: Inhibition of HSP90alpha in human MDA-MB-453 cells assessed as down-regulation of C-RAF levels by Western blot analysis; type: cell-based
[5] = target: Heat shock protein HSP 90-alpha (Homo sapiens) (UniProt P07900); assay: Inhibition of HSP90alpha in human MDA-MB-453 cells assessed as down-regulation of AKT levels by Western blot analysis; type: cell-based
[6] = target: Heat shock protein HSP 90-alpha (Homo sapiens) (UniProt P07900); assay: Inhibition of HSP90alpha in human MDA-MB-453 cells assessed as upregulation of HSP70 levels by Western blot analysis; type: cell-based
MDA-MB-453 [7] = assay: Cell cycle arrest in human MDA-MB-453 cells assessed as reduction in accumulation at S phase at 0.25 to 1 uM after 12 hrs by propidium iodide-staining based flow cytometry; type: functional
SH-SY5Y = assay: Antiproliferative activity against human SH-SY5Y cells by SRB assay; type: functional, cell-based
U-251 = assay: Antiproliferative activity against human U251 cells by SRB assay; type: functional, cell-based
HCT-116 = assay: Antiproliferative activity against human HCT116 cells by SRB assay; type: functional, cell-based
HeLa = assay: Antiproliferative activity against human HeLa cells by SRB assay; type: functional, cell-based
A549 = assay: Antiproliferative activity against human A549 cells by SRB assay; type: functional, cell-based
HepG2 = assay: Antiproliferative activity against human HepG2 cells by SRB assay; type: functional, cell-based
SK-OV-3 = assay: Antiproliferative activity against human SKOV3 cells by SRB assay; type: functional, cell-based
PC-3 = assay: Antiproliferative activity against human PC3 cells by SRB assay; type: functional, cell-based
MDA-MB-231 = assay: Antiproliferative activity against human MDA-MB-231 cells by SRB assay; type: functional, cell-based
MCF7 = assay: Antiproliferative activity against human MCF7 cells by SRB assay; type: functional, cell-based
MDA-MB-453 [8] = assay: Induction of apoptosis in human MDA-MB-453 cells after 48 hrs by Annexin V-FITC/propidium iodide-staining based flow cytometry; type: functional, cell-based
MDA-MB-453 [9] = assay: Induction of apoptosis in human MDA-MB-453 cells assessed as early apoptotic cells at 0.25 uM after 48 hrs by Annexin V-FITC/propidium iodide-staining based flow cytometry (reference value: 1.65%); type: functional
MDA-MB-453 [10] = assay: Induction of apoptosis in human MDA-MB-453 cells assessed as late apoptotic cells at 0.25 uM after 48 hrs by Annexin V-FITC/propidium iodide-staining based flow cytometry (reference value: 3.40%); type: functional
MDA-MB-453 [11] = assay: Induction of apoptosis in human MDA-MB-453 cells assessed as early apoptotic cells at 1 uM after 48 hrs by Annexin V-FITC/propidium iodide-staining based flow cytometry (reference value: 1.65%); type: functional
MDA-MB-453 [12] = assay: Induction of apoptosis in human MDA-MB-453 cells assessed as late apoptotic cells at 1 uM after 48 hrs by Annexin V-FITC/propidium iodide-staining based flow cytometry (reference value: 3.40%); type: functional
MDA-MB-453 [13] = assay: Induction of apoptosis in human MDA-MB-453 cells assessed as necrotic cells at 1 uM after 48 hrs by Annexin V-FITC/propidium iodide-staining based flow cytometry (reference value: 0.01%); type: functional
MDA-MB-453 [14] = assay: Induction of apoptosis in human MDA-MB-453 cells assessed as late apoptotic cells at 4 uM after 48 hrs by Annexin V-FITC/propidium iodide-staining based flow cytometry (reference value: 3.40%); type: functional
MDA-MB-453 [15] = assay: Induction of apoptosis in human MDA-MB-453 cells assessed as necrotic cells at 4 uM after 48 hrs by Annexin V-FITC/propidium iodide-staining based flow cytometry (reference value: 0.01%); type: functional
MDA-MB-453 [16] = assay: Induction of apoptosis in human MDA-MB-453 cells assessed as increase in cleaved caspase3 activity at 0.25 uM up to 48 hrs by Western blot analysis; type: functional, cell-based
MDA-MB-453 [17] = assay: Induction of apoptosis in human MDA-MB-453 cells assessed as increase in cleaved caspase7 activity at 0.25 uM up to 48 hrs by Western blot analysis; type: functional, cell-based
MDA-MB-453 [18] = assay: Induction of apoptosis in human MDA-MB-453 cells assessed as increase in cleaved PARP activity at 0.25 uM up to 48 hrs by Western blot analysis; type: functional, cell-based
MDA-MB-453 [19] = assay: Induction of apoptosis in human MDA-MB-453 cells assessed as increase in cleaved caspase7 activity at 0.25 uM up to 48 hrs in presence of z-VAD-fmk by Western blot analysis; type: functional, cell-based
MDA-MB-453 [20] = assay: Induction of apoptosis in human MDA-MB-453 cells assessed downregulation of bcl2 expression at 0.25 uM at 48 hrs by Western blot analysis; type: functional, cell-based
MDA-MB-453 [21] = assay: Induction of apoptosis in human MDA-MB-453 cells assessed upregulation of bid expression at 0.25 uM by Western blot analysis; type: functional, cell-based; conditions: TDE = time-dependent effect
MDA-MB-453 [22] = assay: Induction of apoptosis in human MDA-MB-453 cells assessed upregulation of bim expression at 0.25 uM by Western blot analysis; type: functional, cell-based; conditions: TDE = time-dependent effect
[23] = target: T1, Heat shock protein HSP90 (Homo sapiens) (UniProt P07900+P08238); assay: Inhibition of HSP90 in human MDA-MB-453 cells assessed as suppression of TNFalpha-induced NFkappaB activation by measuring reduction in IKBalpha degradation at 0.25 uM after 24 hrs by Western blot analysis; type: cell-based
[24] = target: T1, Heat shock protein HSP90 (Homo sapiens); assay: Inhibition of HSP90 in human MDA-MB-453 cells assessed as suppression of TNFalpha-induced NFkappaB activation by measuring reduction in relA/p65 translocation to the nucleus at 0.25 uM after 24 hrs by Western blot analysis; type: cell-based
[25] = target: T2, MAP kinase p38 (Homo sapiens) (UniProt O15264+Q15759+Q16539+P53778); assay: Induction of p38 in human MDA-MB-453 cells assessed as upregulation of Hsp27 Ser82 phosphorylation at Ser82 at 0.25 uM after 2 hrs by Western blot analysis; type: cell-based
[26] = target: T2, MAP kinase p38 (Homo sapiens); assay: Induction of p38 in human MDA-MB-453 cells assessed as upregulation of Hsp27 phosphorylation at Ser82 at 0.25 uM after 2 hrs in presence of […] by Western blot analysis; type: cell-based
[27] = target: NF-kappa-B essential modulator (Homo sapiens) (UniProt Q9Y6K9); assay: Induction of IKKgamma association to hsp27 in human MDA-MB-453 cells at 0.25 uM after 6 hrs by immunoprecipitation and Western analysis; type: cell-based
NF-kappa-B essential modulator (Homo sapiens), sequence (Q9Y6K9 whole entry): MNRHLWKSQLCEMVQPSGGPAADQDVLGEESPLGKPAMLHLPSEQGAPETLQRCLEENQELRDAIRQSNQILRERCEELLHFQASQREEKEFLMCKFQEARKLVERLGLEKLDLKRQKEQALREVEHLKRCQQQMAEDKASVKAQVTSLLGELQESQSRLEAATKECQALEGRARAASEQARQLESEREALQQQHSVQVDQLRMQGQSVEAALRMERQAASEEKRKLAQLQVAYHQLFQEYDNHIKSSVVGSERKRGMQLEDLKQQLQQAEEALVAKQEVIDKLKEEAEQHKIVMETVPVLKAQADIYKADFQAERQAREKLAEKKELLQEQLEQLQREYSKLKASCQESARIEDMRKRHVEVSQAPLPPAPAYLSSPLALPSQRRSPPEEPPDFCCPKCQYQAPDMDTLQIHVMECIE

SW480 = assay: Antiproliferative activity against human SW480 cells by SRB assay; type: functional, cell-based
MDA-MB-453 [28] = assay: Effect on Bax protein expression in human MDA-MB-453 cells at 0.25 uM incubated for 6 to 48 hrs by Western blot analysis; type: functional, cell-based

## O=C(NCc1ccncc1)[C@H]1Cc2ccccc2CN1C(=O)c1cc(Cl)c(O)cc1O
[1]
  Activity: Dose-dependent effect
[2]
  inhibition: Dose-dependent effect
[3]
  inhibition: Dose-dependent effect
[4]
  inhibition: Dose-dependent effect
[5]
  inhibition: Dose-dependent effect
[6]
  inhibition: Dose-dependent effect
MDA-MB-453 [7]
  Activity: Active
SH-SY5Y
  Activity: Active
U-251
  Activity: Active
HCT-116
  Activity: Active
HeLa
  Activity: Active
A549
  Activity: Active
HepG2
  Activity: Active
SK-OV-3
  Activity: Active
PC-3
  Activity: Active
MDA-MB-231
  Activity: Active
MCF7
  Activity: Active
MDA-MB-453 [8]
  Activity: Dose-dependent effect
MDA-MB-453 [9]
  Activity: 4.26%
MDA-MB-453 [10]
  Activity: 4.19%
MDA-MB-453 [11]
  Activity: 15.88%
MDA-MB-453 [12]
  Activity: 15.11%
MDA-MB-453 [13]
  Activity: 0.03%
MDA-MB-453 [14]
  Activity: 18.32%
MDA-MB-453 [15]
  Activity: 0.54%
MDA-MB-453 [16]
  Activity: Active
MDA-MB-453 [17]
  Activity: Active
MDA-MB-453 [18]
  Activity: Active
MDA-MB-453 [19]
  Activity: inactive
MDA-MB-453 [20]
  Activity: Active
MDA-MB-453 [21]
  Activity: Tde
MDA-MB-453 [22]
  Activity: Tde
[23]
  inhibition: Active
[24]
  inhibition: Active
[25]
  Activity: Active
[26]
  Activity: inactive
[27]
  Activity: Active
SW480
  Activity: Active
MDA-MB-453 [28]
  Activity: inactive
